Results published in PMC5920042, “KH176 Safeguards Mitochondrial Diseased Cells from Redox Stress-Induced Cell Death by Interacting with the Thioredoxin System/Peroxiredoxin Enzyme Machinery” (Scientific Reports, 2018).
Like-named read-outs stand apart in the source and are kept apart here.

Tests used:
[1] = tested on: P4 cell line; experiment: Redox Stress Survival assay (BSO-induced cell death, Calcein AM viability); format: cell-based, human; conditions: for EC50: 24 h, P4 cells, 200 µM BSO
Method: Cells were seeded at a density of 4 × 10^3 cells/well into 96-wells black plates and incubated for 24 h. To induce redox stress, semi-logarithmic dilutions of buthionine sulphoximine (BSO, #B2515, Sigma Aldrich) up to 100 µM were added to the cells in culture medium and incubated for 24 h. Cell viability was assessed by quantification of cellular conversion of Calcein AM into fluorescent Calcein. Briefly, after having discarded the BSO containing medium, cells were washed once with M199 without phenol red and loaded with 2 µM Calcein AM (#65-0853-39, Affimetrix eBioscience) in M199 without phenol red for 25 min. At the end of the incubation period, the excess of the dye was washed with M199 without phenol red and Calcein fluorescence was measured with a scanning microplate reader (BMG FLUOstar Omega; Ex. 480 nm, Em. 520 nm). For compound screening and target identification measurements cells were treated with 200 µM BSO alone or in co-incubation with semi-logarithmic dilutions of the test compound. Additionally, where indicated, increasing doses of Auranofin (AFN, #BML-EI206-0100, Enzo) or Aurothioglucose (ATG, #A0606, Sigma Aldrich) were co-incubated with BSO and the test compound. In all cases, cell viability was assessed 24 h after the treatment.

[2] = tested on: P4 cell line; experiment: Radical-Scavenging Capacity assay (CM-H2DCFDA, H2O2 or KO2); format: cell-based, human; conditions: P4 cells, 100 µM H2O2 or 1 mM KO2 (text: KOH), 3 µM compound
Method: Cells were seeded at a density of 4 × 10^3 cells/well into 96-wells black plates. After 24 h the cells were loaded with 5 µM CM-H2DCFDA in M199 without phenol red for 20 min. The dye excess was washed with M199 without phenol red and immediately after, cells were treated acutely with different concentrations of the test compounds in M199 without phenol red. To generate radicals, 100 µM H2O2 or 1 mM KO2 were injected to the compound-treated cells and CM-DCF fluorescence was measured every 2 min for 70 cycles on a scanning microplate reader (BMG FLUOstar Omega; Ex. 480 nm, Em. 520 nm). The area under the generated curves was calculated using the Origin 6.1 software (OriginLab).

[3] = tested on: primary human skin fibroblasts; experiment: Cellular superoxide detection by HEt oxidation; format: cell-based; conditions: 24 h compound
Method: The cells were seeded at a density of 3 × 10^3 cells/well into 96-wells black plates. After 24 h, the cells were incubated with different amounts of KH176(m) for 24 h. For the cellular superoxide measurements cells were then washed with M199 without phenol red and incubated with HEt (#D11347, ThermoFisher) in this same medium for 10 minutes. […] Total cellular fluorescence per well was normalized on the incubation with the probe but without compound (vehicle set as 100%). Experiments were performed at least three times with 3 wells per experiment.

[4] = tested on: P4 cell line; experiment: GSH measurements (GSH-Glo) under BSO; format: cell-based, human; conditions: increasing BSO 24 h, 3 µM compound
Method: Cells were seeded at a density of 4 × 10^3 cells/well into 96-wells white plates (#655098, Greiner Bio-one). After 24 h the cells were treated with semi-logarithmic dilutions of BSO up to a concentration of 100 µM alone or in co-incubation with a fixed amount of the test compound. 24 h after the treatment, GSH levels were measured with the GSH-Glo™ Glutathione Assay (# V6911, Promega) according to the manufacturer instructions. Luminescence was measured on a scanning microplate reader (BMG FLUOstar Omega).

[5] = Single dose pharmacokinetics and bioavailability study; format: in vivo, male C57BL/6 mice; conditions: male, mouse
Method: (§1) Pharmacokinetics and toxicokinetics measurements were performed by the commercial Contract Research Organizations Sai Life Sciences and WuXi AppTec, respectively, according to their standard protocols and in accordance with relevant guidelines and regulations. C57 BL/6 mice, Sprague Dawley rats, and Beagle dogs were studied.

[6] = 28-day repeat oral dose toxicity study, toxicokinetics; format: in vivo, Sprague Dawley rats; conditions: Sprague Dawley, rat, plasma, po; for AUC(0-t): read-out: AUC0–24 h; for Cmax: read-out: Cmax
Method: as §1

[7] = C57BL/6, iv, KH176 2 mg/kg i.v., plasma
[8] = C57BL/6, po, KH176 10 mg/kg p.o., plasma
[9] = female, 25 mg/kg, KH176 25 mg/kg/dose BID oral, F, Day 1, plasma
[10] = female, 25 mg/kg, KH176 25 mg/kg/dose BID oral, F, Day 28, plasma
[11] = female, 75 mg/kg, KH176 75 mg/kg/dose BID oral, F, Day 1, plasma
[12] = female, 75 mg/kg, KH176 75 mg/kg/dose BID oral, F, Day 28, plasma
[13] = female, 250 mg/kg, KH176 250 mg/kg/dose BID oral, F, Day 1, plasma
[14] = female, 250 mg/kg, KH176 250 mg/kg/dose BID oral, F, Day 28, plasma
[15] = male, 25 mg/kg, KH176 25 mg/kg/dose BID oral, M, Day 1, plasma
[16] = male, 25 mg/kg, KH176 25 mg/kg/dose BID oral, M, Day 28, plasma
[17] = male, 75 mg/kg, KH176 75 mg/kg/dose BID oral, M, Day 1, plasma
[18] = male, 75 mg/kg, KH176 75 mg/kg/dose BID oral, M, Day 28, plasma
[19] = male, 250 mg/kg, KH176 250 mg/kg/dose BID oral, M, Day 1, plasma
[20] = male, 250 mg/kg, KH176 250 mg/kg/dose BID oral, M, Day 28, plasma

Question: Which EC50 ([1]; Homo sapiens) does the source give for `Cc1c(C)c2c(c(C)c1O)CC[C@@](C)(C(=O)N[C@@H]1CCCNC1)O2.Cl` [KH176, (S)-6-hydroxy-2,5,7,8-tetramethyl-N-((R)-piperidin-3-yl)chroman-2-carboxamide hydrochloride] here?
Answer: 269 nM

Question: And the EC50 [1]?
Answer: 270 nM

Question: And the “Viability of patient cells under BSO” value ([1]; increasing BSO 24 h, 3 µM compound)?
Answer: fully protected

Question: What about the “Reduction of H2O2-induced radicals and O2.- (CM-H2DCFDA oxidation)” value [2] of the same molecule?
Answer: able to reduce the levels of both radicals

Question: And the “Effect on basal cellular superoxide levels (HEt)” value [3]?
Answer: no effect

Question: What about the “GSH level under BSO” value [4] of the same molecule?
Answer: remained unaffected

Question: What about the Kp ([5]; C57BL/6, brain, iv, KH176 2 mg/kg i.v., read-out: Brain to Plasma ratio, range (1–8 hours)) of the same molecule?
Answer: 1 to 25

Question: And the Kp ([5]; C57BL/6, brain, po, KH176 10 mg/kg p.o., read-out: Brain to Plasma ratio, range (1–8 hours))?
Answer: 0.4 to 0.8

Question: And the Kp ([5]; C57BL/6, heart, iv, KH176 2 mg/kg i.v., read-out: Heart to Plasma ratio, range (1–8 hours))?
Answer: 4.3 to 28.3

Question: What about the Kp ([5]; C57BL/6, heart, po, KH176 10 mg/kg p.o., read-out: Heart to Plasma ratio, range (1–8 hours)) of the same molecule?
Answer: 2.4 to 5.7

Question: And the AUC(0-inf) [5, 7]?
Answer: 191 ng·h/mL

Question: What about the AUC(0-t) [5, 7] of the same molecule?
Answer: 181 ng·h/mL

Question: What about the clearance [5, 7] of the same molecule?
Answer: 175 mL/min/kg

Question: And the half-life [5, 7]?
Answer: 1.4 h

Question: What about the C0 ([5]; C57BL/6, iv, KH176 2 mg/kg i.v., plasma, back extrapolated) of the same molecule?
Answer: 543 ng/mL

Question: And the Kp ([5]; C57BL/6, liver, iv, KH176 2 mg/kg i.v., read-out: Liver to Plasma ratio, range (1–8 hours))?
Answer: 10.5 to 29.3

Question: And the Kp ([5]; C57BL/6, liver, po, KH176 10 mg/kg p.o., read-out: Liver to Plasma ratio, range (1–8 hours))?
Answer: 5.7 to 12.1

Question: What about the Vd ([5]; C57BL/6, plasma, iv, KH176 2 mg/kg i.v., read-out: Vss) of the same molecule?
Answer: 9.5 L/kg

Question: And the bioavailability ([5]; C57BL/6, plasma, oral, 10 mg/kg p.o. vs 2 mg/kg i.v., from AUClast, read-out: F (oral bioavailability))?
Answer: 68%

Question: And the AUC(0-inf) [5, 8]?
Answer: 624 ng·h/mL

Question: And the AUC(0-t) [5, 8]?
Answer: 618 ng·h/mL

Question: What about the Cmax [5, 8] of the same molecule?
Answer: 414 ng/mL

Question: And the Tmax ([5]; C57BL/6, po, KH176 10 mg/kg p.o., plasma, read-out: Tmax)?
Answer: 0.25 h

Question: And the Kp ([5]; C57BL/6, skeletal muscle, iv, KH176 2 mg/kg i.v., read-out: Skeletal muscle to Plasma ratio, range (1–8 hours))?
Answer: 8.7 to 20.1

Question: And the Kp ([5]; C57BL/6, skeletal muscle, po, KH176 10 mg/kg p.o., read-out: Skeletal muscle to Plasma ratio, range (1–8 hours))?
Answer: 0.8 to 5.2

Question: And the half-life [6, 9]?
Answer: 2.6 h

Question: What about the AUC(0-t) [6, 9] of the same molecule?
Answer: 12500 ng·h/mL

Question: And the Cmax [6, 9]?
Answer: 1360 ng/mL

Question: What about the half-life [6, 10] of the same molecule?
Answer: 3.2 h

Question: And the AUC(0-t) [6, 10]?
Answer: 19000 ng·h/mL

Question: And the Cmax [6, 10]?
Answer: 2270 ng/mL

Question: What about the half-life [6, 11] of the same molecule?
Answer: 8.4 h

Question: And the AUC(0-t) [6, 11]?
Answer: 42400 ng·h/mL

Question: And the Cmax [6, 11]?
Answer: 3050 ng/mL

Question: And the half-life [6, 12]?
Answer: 6 h

Question: And the AUC(0-t) [6, 12]?
Answer: 76900 ng·h/mL

Question: And the Cmax [6, 12]?
Answer: 5340 ng/mL

Question: And the AUC(0-t) [6, 13]?
Answer: 104000 ng·h/mL

Question: What about the Cmax [6, 13] of the same molecule?
Answer: 6970 ng/mL

Question: And the AUC(0-t) [6, 14]?
Answer: 243000 ng·h/mL

Question: What about the Cmax [6, 14] of the same molecule?
Answer: 13300 ng/mL

Question: What about the half-life [6, 15] of the same molecule?
Answer: 2.4 h

Question: What about the AUC(0-t) [6, 15] of the same molecule?
Answer: 10500 ng·h/mL

Question: What about the Cmax [6, 15] of the same molecule?
Answer: 979 ng/mL

Question: And the half-life [6, 16]?
Answer: 5.6 h

Question: And the AUC(0-t) [6, 16]?
Answer: 15600 ng·h/mL

Question: What about the Cmax [6, 16] of the same molecule?
Answer: 1600 ng/mL

Question: What about the half-life [6, 17] of the same molecule?
Answer: 4.5 h

Question: And the AUC(0-t) [6, 17]?
Answer: 33100 ng·h/mL

Question: And the Cmax [6, 17]?
Answer: 2860 ng/mL

Question: And the AUC(0-t) [6, 18]?
Answer: 46200 ng·h/mL

Question: What about the Cmax [6, 18] of the same molecule?
Answer: 4210 ng/mL

Question: And the AUC(0-t) [6, 19]?
Answer: 94000 ng·h/mL

Question: What about the Cmax [6, 19] of the same molecule?
Answer: 5890 ng/mL

Question: And the half-life [6, 20]?
Answer: 8.3 h

Question: What about the AUC(0-t) [6, 20] of the same molecule?
Answer: 157000 ng·h/mL

Question: What about the Cmax [6, 20] of the same molecule?
Answer: 11200 ng/mL
